Here are results for one compound from patent publication US10821142B2, “Cancer treatment and diagnosis” (priority 2015, dated 2020).

SMILES strings stand for the structures.

Series [1] has as its system STING-dependent genes in murine embryonic fibroblasts. Put plainly: Gene array and qPCR of WT and SKO MEFs treated with AOM or DMH. The conditions noted are these: AOM 0.14 mM for 8 hours. The class given is cell-based, mouse. The method, then:
(§1) FIGS. 1A-1E show activation of STING-dependent genes by azoxymethane (AOM) (FIG. 1A) Gene array analysis of Wild type (WT) and STING deficient (SKO) mouse embryonic fibroblasts (MEFs) treated with AOM at 0.14 mM for 8 hours (Left) and 1,2-dimethylhydrazine (DMH) at 1 mM for 8 hours (Right). Highest variable genes are shown. Rows represent individual genes; columns represent individual samples. Grayscale indicates transcript levels below, equal to, or above the mean. Scale represents the intensity of gene expression (log 2 scale ranges between −2.4 and 2.4). (FIG. 1B) qPCR analysis of Cxcl10 and Ifit3 in MEFs treated with AOM and DMH same as FIG. 1A. (FIG. 1C) qPCR analysis of Cxcl10 in Human epithelial cell (FHC) treated with AOM and DMH at 1 mM for 24 hours. (FIG. 1D) FHC cells were transfected with STING or control siRNA for 72 hours followed by AOM and DMH treatment same as FIG. 1C, and were then subjected to Cxcl0 mRNA expression (Left). STING expression level after siRNA treatment was determined by qPCR (Right). […] (FIG. 1E) STING Immunohistochemistry staining of the colon tissue from WT and SKO mice (Left) and Human. All images were shown at original magnification, 200×.
Towards these objectives, the AOM/DSS model, as described above, was utilized and analyzed the effects of AOM and precursor DMH upon STING signaling. Principally, wild type (WT) or STING-deficient (SKO) murine embryonic fibroblasts (MEF) were treated in vitro with DMH or metabolite AOM for 8 hours and microarray analysis performed to analyze the consequences to gene expression. […] The observed STING-dependent gene expression was confirmed following RT-PCR analysis of select mRNA such as Cxcl10 and IFIT3 (FIG. 1B). […] Thus, the DNA damaging agent DMH/AOM can invoke STING-dependent signaling.
Total RNA was isolated from cells or tissues with RNeasy Mini kit (74104, Qiagen, Valencia, Calif.). RNA quality was analyzed by Bionalyzer RNA 6000 Nano (Agilent Technologies, Santa Clara Calif.). […]

A further series concerns type I IFN production. Put plainly: IFNB induction (qPCR) in normal and colon cancer cells treated with AOM or DMH. It is filed as cell-based, human. The following applies: 15 mM for 20 hours. The method, then: FIG. 22. Normal and colon cancer cells were treated with AOM or DMH at 15 mM for 20 hours. IFNB induction was analyzed by qPCR. STING, IRF3 and NF-kB translocation was examined: +, translocation; −, no translocation.
The question arises as to why the STING-signaling pathway may be inhibited in colon adenocarcinoma. Recently, it was shown that STING-deficient cells and mice are sensitive to AOM-induced DNA damage. In this situation, the STING pathway may play a role in the DNA-damage response pathway, to induce the production of cytokines which facilitate tissue repair or damaged cell removal (Chatzinikolaou et al., 2014; Kidane et al., 2014; Lord and Ashworth, 2012). As such, innate immune induction of CA cells in response to DNA damaging agents was examined. […] Thus, the inhibition of the STING pathway may enable DNA damaged cells, harboring mutations, to escape part of the DNA damage response and the immune surveillance machinery to progress into a tumorigenic state.
Background: In qPCR the cycle at which signal appears reflects the starting amount.

For a further series, the system named is colon. The following applies: mice; single injection of AOM followed by DSS via drinking water; cited from earlier work.
In the next series the test system is IRF3/NF-κB translocation. Nature of the series: Immunofluorescence of IRF3/NF-κB translocation in FHC treated with DMH/AOM. The following applies: 3 mM for 48 hours. It is filed as cell-based, human. As to the method:
FIGS. 8A-8C show fluorescence microscopy analysis (related to FIG. 1) of DAPI staining in WT and SKO MEFs treated with 3 mM of AOM of 3 mM of DMH (FIG. 8A) and anti-dsDNA staining and the ration of cytoplasm to nucleus (FIG. 8B) in Human normal colon epithelial cells (FHC) treated with 3 mM of AOM or 3 mM of DMH for 48 hours. (FIG. 8C) Immunofluorescence microscopy analysis of FHC treated with AOM and DMH sane as FIG. 8A for 48 hours using p65 or IRF3 antibody. Images shown at original magnification, 160×.
To start determining the mechanisms underlining the cause of DMH/AOM-induced STING activity, MEF or FHC cells were treated with these drugs and observed by two different approaches, DAPI staining and immunofluorescence (IF) using anti-dsDNA antibody, the leakage of DNA into the cytosol (FIGS. 8A and 8B). Cytosolic DNA activates STING and stimulates STING/TBK1 trafficking via autophagy to endosomal regions harboring the transcription factors IRF3 and NF-κB, which triggers cytokine production. […]
Cells were cultured and treated in their appropriate media on Lab-Tek II chamber slides. […] Immunostaining was performed with rabbit-anti-STING polyclonal followed by fluorescence conjugated secondary antibodies (FITC-goat-anti-rabbit) (Invitrogen). […]

The test system of series [2] is STING-dependent genes in FHC cells. Nature of the series: qPCR of Cxcl10 in human colon epithelial cells (FHC) treated with AOM. The class given is cell-based. The conditions noted are these: FHC treated with RNAi to STING. As to the method: as §1
Towards these objectives, the AOM/DSS model, as described above, was utilized and analyzed the effects of AOM and precursor DMH upon STING signaling. […]

Regarding `CN=[N+](C)[O-]` [AOM, Azoxymethane], the “mRNA production of innate immune related genes” value in series [1] (MEFs lacking STING (SKO)) is “marked decrease in the production of the same genes”; in series [1] (WT MEFs), “activated mRNA production of a wide array of innate immune related genes”. The “production of type I IFN” value in the series on type I IFN production (CA cells with defective STING activated IRF3 or NF-kB activity) is “unable to generate type I IFN”; with type I IFN production (normal colon epithelial (CCD841) and LS123), “able to induce the production of type I IFN”. In addition, the colon cancer induced in the series on colon was about 100%. Besides, the “translocation of IRF3/NF-κB” value in the series with IRF3/NF-κB translocation is “could instigate the translocation of IRF3/NF-κB”. Besides, in series [2], the “production of Cxcl10” value is given as “similarly reduced”.
